Assay results published in patent US20180325914A1, “INCREASING STORAGE OF VITAMIN A, VITAMIN D AND/OR LIPIDS” (Salk Institute for Biological Studies, priority 2014, published 2018).

System: pro-fibrotic gene expression (COL1A1) in LX-2 cells
Experiment: qRT-PCR of pro-fibrotic gene expression in LX-2 cells
Details: 500 nM, 16 hr, equimolar doses, absence or presence of TGFβ1 (5 ng/ml), compared with JQ1

COc1cc2c(cc1-c1c(C)noc1C)ncc1[nH]c(=O)n([C@H](C)c3ccccn3)c12 [I-BET-151]
inhibitory effects on the expression of a wide range of pro-fibrotic genes: comparable inhibitory effects to JQ1

COc1ccccc1S(=O)(=O)Nc1ccc2c(c1)CN(C)C(=O)N2 [PFI-1]
inhibitory effects on the expression of a wide range of pro-fibrotic genes: comparable inhibitory effects to JQ1
